Test system: hormone-insensitive PC3 cells
Assay: Growth inhibition in prostate carcinoma cells
Type: cell-based
Method: In these studies, cells were seeded at 5,000 cells per untreated well.

GTCCCGACATGTCAGACAGG (antisense GTCCCGACATGTCAGACAGG; chemistry not given here) [SEQ ID NO 1, antisense 20 mer spanning the translation start site of CK2α]
IC50 as % of cisplatin's IC50: 65%

Source: US20060018826A1, “Biologic modulations with nanoparticles” (priority 2002, published 2006)
